Data published in patent publication EP0364941A1, “Branched-chain alkyl esters of 2-(4-(2-piperidino ethoxy)benzoyl)benzoic acid, processes for their preparation and their use as spasmolytic agents” (HOECHST AKTIENGESELLSCHAFT, priority 1988, dated 1990).

Assays:
[1] = tested on: isolated guinea pig ileum; assay: Antispasmodic activity in isolated guinea pig ileum (acetylcholine-induced contraction); assay type: cell-based
Protocol: Small intestines obtained from freshly sacrificed guinea pigs (weight range, 200 - 400 g) of either sex were cleaned and stored in tyrode solution. A piece of ileum was mounted in an organ bath containing tyrode solution at 37°C and maintained at a tension of 0.5 to 1.0 g. The solution was continuously aerated with compressed air. After an initial equilibration period, a sub-maximal dose of acetylcholine required for measurable contraction was standardised. Tension changes were monitored using an isotonic strain gauge attached to the tissue and the responses were recorded on a strip chart recorder. Antispasmodic activity of test compounds at different concentrations was followed and the IC₅₀ values were calculated from dose response curves.

small intestine = assay: Antispasmodic activity in anaesthetized dog (carbachol or acetylcholine induced intestinal contractions); assay type: in vivo; settings: anaesthetised dog
Protocol: Male mongrel dogs of weight range 10 to 15 kg were anaesthetised with pentobarbitone sodium (35 mg/ kg,i.v.). Slow i.v. infusion of pentobarbitone (5 mg/kg/hour) was given for maintenance anaesthesia. The endotracheal tube was inserted to facilitate spontaneous breathing. Both femoral artery and vein were cannulated respectively for recording blood pressure and administering drugs. After laparotomy, a small portion of small intestine distal to duodenum was isolated and saline filled balloon inserted and the opening was sutured. A fine polyethylene cannula was then inserted into the mesenteric artery which supplies to the area of intestine containing balloon for injection of carbachol or acetylcholine. A Statham pressure transducer was then attached to balloon cannula for recording both circular and longitudinal muscle contractions. All the parameters were recorded on 4 channel Nihon-Kohden recorder. The intestinal contractions were recorded after administering a standard dose of carbachol or acetylcholine (0.5 to 3 µg). Test compounds I and II were given at different doses 3,10 and 20 mg/kg intra-duodenally and spasmolytic activity was assessed at various time intervals. Anti-spasmodic activity was assessed by calculating percent reduction in agonist induced contractions and also noting onset and duration of activity. The test compounds were dissolved in distilled water (1% soln.). Table 3 Test compounds I and II were given at different doses (10, 30, 100, 300 and 1000 µg/kg) intravenously and spasmolytic activity was assessed at different time intervals. Anti-spasmodic activity was assessed by calculating percent reduction in agonist induced contractions. The ID₅₀ value was calculated from the dose response curve.

CC(C)OC(=O)c1ccccc1C(=O)c1ccc(OCCN2CCCCC2)cc1.Cl [Test Compound II, Isopropyl-2-[4-(2-piperidino-ethoxy)-benzoyl]-benzoate hydrochloride]
Guinea pig ileum Duration of action [1]: > 7.0 min | IC50 ([1]; Cavia porcellus, read-out: Guinea pig ileum IC₅₀): 0.01 µg/mL | Duration (small intestine; 3 mg/kg intra-duodenal): 35 min | On-set (small intestine; 3 mg/kg intra-duodenal): 7 min | Percent Inhibition (small intestine; 3 mg/kg intra-duodenal): 54% | Duration (small intestine; 10 mg/kg intra-duodenal): 78 min | On-set (small intestine; 10 mg/kg intra-duodenal): 6.5 min | Percent Inhibition (small intestine; 10 mg/kg intra-duodenal): 83% | ED50 (small intestine; Canis lupus familiaris, iv, read-out: ID₅₀): 0.01 mg/kg | Duration of action (small intestine; intravenous administration): > 60 min
